In patent US20250042889A1, “3CLPRO PROTEASE INHIBITOR” (SHANGHAI QILU PHARMACEUTICAL RESEARCH AND DEVELOPMENT …, priority 2021, published 2025):

Molecular target: SARS-COV-2 3CLpro/Mpro protease (Severe acute respiratory syndrome coronavirus 2 (2019-nCoV) (SARS-CoV-2), UniProt P0DTD1)
Assay: Inhibitory effect on SARS-COV-2 3CLpro/Mpro protease by fluorescence resonance energy transfer
Type: biochemical
Conditions: IC50 (nM), Inhibition on SARS-CoV-2 3CLpro/Mpro protease, activity intervals A-D

Structure (SMILES)	IC50 [nM]
CNc1cncc(C(=O)N2C[C@H](Nc3c(C(=O)N4C5CCCC4COC5)cc(Br)cc3[N+](=O)[O-])[C@@H](OC)C2)c1 [Example 371]	10 to 50

Same assay, conditions: activity intervals A-D, read-out: IC50 (nM), Inhibition on SARS-CoV-2 3CLpro/Mpro protease

Structure (SMILES)	IC50 [nM]
CNc1cncc(C(=O)N2C[C@H](Nc3c(C(=O)N4C[C@@H](C)O[C@@H](C)C4)cc(Br)cc3[N+](=O)[O-])C[C@H]2C(=O)N2CCNC(=O)C2)c1 [Example 364]	50 to 100
CNc1cncc(C(=O)N2C[C@H](Nc3c(C(=O)N4C[C@@H](C)O[C@@H](C)C4)cc(Br)cc3[N+](=O)[O-])C[C@@H](O[C@H]3CCOC3)C2)c1 [Example 452, (5-Bromo-2-(((3R,5R)-1-(5-(methylamino)nicotinoyl)-5-((S)-tetrahydrofuran-3-yl)oxy)piperidin-3-amino)-3-nitrophenyl)((2S,6R)-2,6-dimethylmorpholinyl)methanone]	50 to 100
CNc1cncc(C(=O)N2CCC[C@@H](Nc3c(C(=O)N4CCO[C@H](C5CC5)C4)cc(Br)cc3[N+](=O)[O-])C2)c1 [Example 342]	10 to 50
COCCN1CCN(C(=O)c2cc(Br)cc([N+](=O)[O-])c2N[C@H]2CN(C(=O)c3cncc(Br)c3)CC2(C)O)CC1 (some centres unmarked) [Example 287]	10 to 50
O=C(c1cc(Br)cc([N+](=O)[O-])c1N[C@@H]1CCCN(C(=O)c2cncc3cc(Cl)ccc23)C1)N1CCCCC1 [Example 8, (R)-(5-bromo-2-((1-(7-chloroisoquinolin-4-carbonyl)piperidin-3-yl)amino)-3-nitrophenyl)(piperidin-1-yl)methanone]	< 10
O=C(c1cc(Br)cc(C(F)(F)F)c1N[C@@H]1CCCN(C(=O)c2cncc3ccccc23)C1)N1CCCCC1 [Example 67]	10 to 50
CNc1cncc(C(=O)N2C[C@H](Nc3c(C(=O)N4C[C@@H](C)O[C@@H](C)C4)cc(Br)cc3[N+](=O)[O-])C[C@H]2C(N)=O)c1 [Example 379, (2S,4R)-4-((4-bromo-2-((2R,6S)-2,6-dimethylmorpholin-4-carbonyl)-6-nitrophenyl)amino)-1-(5-(methylamino)nicotinoyl) pyrrolidin-2-formamide]	10 to 50
CNc1cncc(C(=O)N2CC(Nc3c(C(=O)N4CCC5(CCC5)CC4)cc(Br)cc3[N+](=O)[O-])C(C)(C)C2)c1 (centres unmarked) [Example 177]	10 to 50
C[C@@H]1CN(C(=O)c2cc(Br)cc([N+](=O)[O-])c2N[C@@H]2COCC[C@@H]2NC(=O)c2cncc3ccccc23)C[C@H](C)O1 [Example 214]	10 to 50
CNc1cncc(C(=O)N2CCC[C@@H](Nc3c(C(=O)N4CCC5(CC4)COC(C)(C)C5)cc(Br)cc3[N+](=O)[O-])C2)c1 [Example 339]	10 to 50
CNc1cncc(C(=O)N2CC(Nc3c(C(=O)N4C[C@H](C)C[C@H](C)C4)cc(Br)cc3[N+](=O)[O-])C(C)(C)C2)c1 (some centres unmarked) [Example 180]	50 to 100
CNc1cncc(C(=O)N2CC(Nc3c(C(=O)N4CCC[C@@H](C)C4)cc(Br)cc3[N+](=O)[O-])C(C)(C)C2)c1 (some centres unmarked) [Example 174]	10 to 50
CNc1cncc(C(=O)N2CC(Nc3c(C(=O)N4CCC(C)(C)CC4)cc(Br)cc3[N+](=O)[O-])C(F)(F)C2)c1 (centres unmarked) [Example 166]	10 to 50
O=C(c1cc(Br)c[n+]([O-])c1)N1CCC[C@@H](Nc2c(C(=O)N3CCC(F)(F)CC3)cc(Br)cc2[N+](=O)[O-])C1 [Example 105]	50 to 100
CNc1cncc(C(=O)N2C[C@H](Nc3c(C(=O)N4C[C@@H](C)O[C@@H](C)C4)cc(Br)cc3[N+](=O)[O-])C[C@H]2C(=O)N(C)C)c1 [Example 377]	50 to 100
NC(=O)c1cncc(C(=O)N2CCC[C@@H](Nc3c(C(=O)N4CCCCC4)cc(Br)cc3[N+](=O)[O-])C2)c1 [Example 302]	100 to 200
CN1CCN(C(=O)c2cc(Br)cc([N+](=O)[O-])c2N[C@@H]2CCCC[C@@H]2NC(=O)c2cncc3cc(Cl)ccc23)CC1 [Example 123]	< 10
CNc1cncc(C(=O)N2CCC[C@@H](Nc3c(C(=O)N4CCC(N5C[C@@H](C)O[C@@H](C)C5)CC4)cc(Br)cc3[N+](=O)[O-])C2)c1 [Example 289]	10 to 50
C[C@@H]1CN(C(=O)c2cc(Br)cc([N+](=O)[O-])c2N[C@@H]2CCCC[C@@H]2NC(=O)c2cncc3cc(Cl)ccc23)C[C@H](C)O1 [Example 113]	< 10
CNc1cncc(C(=O)N2CC(Nc3c(C(=O)N4C[C@H](C)C[C@H](C)C4)cc(Br)cc3[N+](=O)[O-])C(F)(F)C2)c1 (some centres unmarked) [Example 100]	10 to 50
C[C@@H]1CN(C(=O)c2cc(Br)cc([N+](=O)[O-])c2N[C@@H]2CCCN(C(=O)c3cncc4cc(Cl)ccc34)C2)C[C@H](C)N1 [Example 135]	10 to 50
CNc1cncc(C(=O)N2CCC[C@@H](Nc3c(C(=O)N4C[C@H](C)N(CCOC)[C@@H](C)C4)cc(Br)cc3[N+](=O)[O-])C2)c1 [Example 242]	10 to 50
CSc1cncc(C(=O)N2CCC[C@@H](Nc3c(C(=O)N4CCCCC4)cc(Br)cc3[N+](=O)[O-])C2)c1 [Example 261]	10 to 50
CNc1cncc(C(=O)N2CCC[C@@H](Nc3c(C(=O)N4[C@H](C)COC[C@@H]4C)cc(Br)cc3[N+](=O)[O-])C2)c1 [Example 359]	10 to 50
CNc1cncc(C(=O)N2CCC[C@@H](Nc3c(C(=O)N4CCC(C5CCOCC5)CC4)cc(Br)cc3[N+](=O)[O-])C2)c1 [Example 317]	10 to 50

Structure (SMILES)	IC50 [nM]
C[C@@H]1CN(C(=O)c2cc(Br)cc([N+](=O)[O-])c2N[C@@H]2CCCN(C(=O)c3cncc(I)c3)C2)C[C@H](C)N1 [Example 115]	10 to 50
O=C(N[C@H]1CCCC[C@H]1Nc1c(C(=O)N2CCC(N3CCOCC3)CC2)cc(Br)cc1[N+](=O)[O-])c1cc(=O)[nH]c2ccccc12 [Example 136]	< 10
[2H]C([2H])([2H])Nc1cncc(C(=O)N2C[C@H](Nc3c(C(=O)N4C[C@@H](C)O[C@@H](C)C4)cc(Br)cc3[N+](=O)[O-])[C@@H](OC)C2)c1 [Example 443]	10 to 50
CNc1cncc(C(=O)N2CCC[C@@H](Nc3c(C(=O)N4CCN(C)CC4)cc(Br)cc3[N+](=O)[O-])C2)c1 [Example 29, (R)-(5-bromo-2-((1-(5-(methylamino)nicotinoyl)piperidin-3-yl)amino)-3-nitrophenyl)(4-methylpiperazin-1-yl)methanone]	10 to 50
CNc1cncc(C(=O)N2CCC[C@@H](Nc3c(C(=O)N4CCOCC4)cc(Br)cc3[N+](=O)[O-])C2)c1 [Example 200]	10 to 50
CNc1cncc(C(=O)N2C[C@H](Nc3c(C(=O)N4C[C@@H](C)O[C@@H](C)C4)cc(Br)cc3[N+](=O)[O-])CC2C#N)c1 (stereo in doubt) [Example 362]	50 to 100
CNc1cncc(C(=O)N2CCC[C@@H](Nc3c(C(=O)N4CCO[C@H](C(F)(F)F)C4)cc(Br)cc3[N+](=O)[O-])C2)c1 [Example 286]	10 to 50
O=C(c1cc[nH]c(=O)c1)N1CCC[C@@H](Nc2c(C(=O)N3CCC(F)(F)CC3)cc(Br)cc2[N+](=O)[O-])C1 [Example 24, (R)-4-(3-((4-bromo-2-(4,4-difluoropiperidin-1-carbonyl)-6-nitrophenyl)amino)piperidin-1-carbonyl)pyridin-2 (1H)-one]	100 to 200
Cc1c(Br)cncc1C(=O)N1CCC[C@@H](Nc2c(C(=O)N3CCCCC3)cc(Br)cc2[N+](=O)[O-])C1 [Example 46]	10 to 50
CNc1cncc(C(=O)N2CCC[C@@H](Nc3c(C(=O)N4CCC[C@H](OC)C4)cc(Br)cc3[N+](=O)[O-])C2)c1 [Example 239]	10 to 50
O=C(c1cncc(C(F)(F)F)c1)N1CCC[C@@H](Nc2c(C(=O)N3CCC(F)(F)CC3)cc(Br)cc2[N+](=O)[O-])C1 [Example 70]	10 to 50
CNc1cncc(C(=O)N2CCC[C@@H](Nc3c(C(=O)N4CCc5oncc5C4)cc(Br)cc3[N+](=O)[O-])C2)c1 [Example 309]	10 to 50
CNc1cncc(C(=O)N2CCC[C@@H](Nc3c(C(=O)N4CCn5ccnc5C4)cc(Br)cc3[N+](=O)[O-])C2)c1 [Example 352]	10 to 50
C[C@@H]1CN(C(=O)c2cc(Br)cc([N+](=O)[O-])c2N[C@@H]2CCN(C(=O)c3cncc4cc(Cl)ccc34)C2)C[C@H](C)N1 [Example 125]	< 10
O=C(c1cc(Br)cc([N+](=O)[O-])c1N[C@@H]1CCCN(C(=O)c2cc(=O)[nH]c3ccccc23)C1)N1CCCCC1 [Example 116]	< 10
CNc1cncc(C(=O)N2C[C@H](Nc3c(C(=O)N4C[C@@H](C)O[C@@H](C)C4)cc(Br)cc3[N+](=O)[O-])C[C@H]2C(=O)N2CC(F)(F)C2)c1 [Example 382]	50 to 100
Cc1cc(C(=O)N2C[C@H](Nc3c(C(=O)N4CC5C(C4)C5(C)C)cc(Br)cc3[N+](=O)[O-])C3(CC3)C2)cc(=O)[nH]1 (some centres unmarked) [Example 88]	10 to 50
CO[C@H]1CN(C(=O)c2cncc3[nH]nnc23)C[C@@H]1Nc1c(C(=O)N2C[C@@H](C)O[C@@H](C)C2)cc(Br)cc1[N+](=O)[O-] [Example 454, (5-Bromo-2-(((3S,4S)-4-methoxy-1-(2-methyl-3H-1,2,3-triazole[4,5-c]pyridin-7-carbonyl)pyrrolidin-3-yl)amino)-3-nitrophenyl)((2S,6R)-2,6-dimethylmorpholinyl)methanone]	10 to 50
CNc1cncc(C(=O)N2CCC[C@@H](Nc3c(C(=O)N4CCOC5(CC5)C4)cc(Br)cc3[N+](=O)[O-])C2)c1 [Example 351]	10 to 50
Cc1cc(C(=O)N2CCC[C@@H](Nc3c(C(=O)N4CC5CC5C4)cc(Br)cc3[N+](=O)[O-])C2)cc(=O)[nH]1 (some centres unmarked) [Example 148]	50 to 100
Cc1cc(C(=O)N2CC(Nc3c(C(=O)N4CCC(C)(C)CC4)cc(Br)cc3[N+](=O)[O-])C(F)(F)C2)cc(=O)[nH]1 (centres unmarked) [Example 155]	50 to 100
CNc1cncc(C(=O)N2C[C@H](Nc3c(C(=O)N4C[C@@H](C)O[C@@H](C)C4)cc(Br)cc3[N+](=O)[O-])C[C@H]2C(=O)Nc2ccn(C)n2)c1 [Example 385]	10 to 50
C[C@@H]1CN(C(=O)c2cc(Br)cc([N+](=O)[O-])c2N[C@@H]2CCCN(C(=O)[C@H]3CC(=O)N[C@@H](C)C3)C2)C[C@H](C)O1 [Example 254]	10 to 50
CNc1cncc(C(=O)N2C[C@H](Nc3c(C(=O)N4CCN(CCOC)CC4)cc(Br)cc3[N+](=O)[O-])C(C)(O)C2)c1 (some centres unmarked) [Example 318]	10 to 50
